We go through four compounds from patent US20260265234A1, “RUPATIFEN FUMARATE CRYSTAL FORM C, AND PREPARATION METHOD THEREFOR AND USE THEREOF” (FUJIAN MINDONG REJUENATION PHARMACEUTICAL CO., LTD., priority 2022, published 2026).

Structures are written as SMILES. Where two headings read alike, the source gives them in different places.

Assay type in all cases: physicochemical
A short description of series [1]: Solubility analysis in water and media of different pH, HPLC. Particulars: for solubility thermodynamic: thermodynamic from solid, read-out: Concentration. How it is done: The excessive test sample was put into a dissolution instrument cup, added with water and an appropriate amount of water-soluble medium with different pH values (pH=1.2, 2.2, 4.0, 4.5, 5.5, 6.8), stirred at 37° C.±1° C. (rotation speed: 100 r/min) for dissolution (more than 6 hours) to form a […] solution, the saturated solution was filtered, the filtrate was diluted with a mobile phase by corresponding times, the concentration was measured by HPLC method, and the solubility was calculated.

Series [2] can be described thus: Fluidity detection: angle of repose by fixed cone bottom method. Particulars: average of three, <30° fluidity better, >40° poor. An excerpt:
Measurement of angle of repose: a fixed cone bottom method was used, the funnel was fixed on a horizontal coordinate paper at a proper height, so that the distance from a lower opening of the funnel to the coordinate paper was H, the powder was carefully poured into the funnel until the tip of a cone formed below the funnel contacted an outlet of the funnel, the radius r of the cone can be measured by the coordinate paper, and measured three times continuously, and the average value was taken as the result. The angle of repose a was calculated as follows: […]
Judgment standard: when the angle of repose is <30°, the fluidity is better. When the angle of repose is >40°, the fluidity is poor.

Series [3] can be described thus: Oil-water distribution coefficient log P (n-octanol-water) by HPLC retention time. Particulars: HPLC retention time against standards of known log P. The source says: The standard substance having known log P (n-octanol-water) was used, the log P (n-octanol-water) of the substance to be tested was detected by HPLC. The principle is based on the fact that the retention time of chemical substances in a long hydrocarbon chain chromatographic column such as C18 column is related to their hydrocarbon-water distribution coefficient. Hydrophilic substances are eluted first, lipophilic substances are eluted later, and the oil-water distribution coefficient and the retention time are in a linear relationship, and the equation is as follows: [formula] [formula] log P: oil-water partition coefficient of samples (n-octanol-water); T0: dead time (measured by uracil here); Tn: retention time of samples by HPLC; according to the above formula, a linear relationship formula can be established by detecting the retention time of the standard substance and the known log P (n-octanol-water). The theoretical value of log P is used as the ordinate, the log K value is used as the abscissa for drawing, the values of a and b are obtained through calculation, and then the retention time (namely the log K value in the table) of samples to be detected is substituted into the equation to calculate the log P (n-octanol-water) value of samples.

The nature of series [4]: Hygroscopicity analysis (weight gain, Chinese Pharmacopoeia 2020 guideline 9103). Particulars: 25° C.±1° C., 24 hours; for Weight Gain: constant humidity. On the procedure: 1) a dry glass weighing bottle with a plug (with an outer diameter of 50 mm and a height of 15 mm) was taken and placed in a proper constant-temperature dryer (the lower part was placed with ammonium chloride or ammonium sulfate saturated solution) at 25° C.±1° C. one day before the test; and the weight of the weighing bottle was precisely measured (m 1).
2) a proper amount of the test sample was taken, tiled in the weighing bottle, wherein the thickness of the test sample was about 1 mm, and the weight of the test sample was precisely measured (m 2). 3) the weighing bottle was opened, and placed with its bottle cap under the constant temperature and humidity conditions for 24 hours.
4) the bottle cap was covered well and the weight of […] was precisely measured (m 3).
According to 9103 guideline principle on drug hygroscopicity test in four part of Chinese Pharmacopoeia 2020 edition, the description of hygroscopicity characteristics and the definition of hygroscopicity weight gain are as follows:
Deliquescence: enough water is absorb to form liquid.
Extremely hygroscopic: the weight gain due to hygroscopicity is not less than 15%.
Hygroscopic: the weight gain due to hygroscopicity is less than 15% but not less than 2%.
Slightly hygroscopic: the weight gain due to hygroscopicity is less than 2% but not less than 0.2%.
No or almost no hygroscopicity: the weight gain due to hygroscopicity is less than 0.2%.

Setting [5] is: Water for injection, 37° C.±1° C.

As usually defined, the chromatographic logP is a lipophilicity value derived from retention on a column. A low value points to lower lipophilicity.

As to `Cc1cncc(CN2CCC(=C3c4ccccc4CC(=O)c4sccc43)CC2)c1.O=C(O)/C=C/C(=O)O` [Mixed crystal, 4-[1-[(5-methylpyridin-3-yl)methyl]piperidyl-4-ylidene]-4,9-dihydro-10H-benzo[4,5]cycloheptyl[1,2-b]thiophen-10-one fumarate], the Concentration in series [1] (setting [5]) turned out to be 1980 µg/mL; in series [1] (pH = 1.2, 37° C.±1° C.), 24470 µg/mL; in series [1] (pH = 2.2, 37° C.±1° C.) it was 3400 µg/mL; in series [1] (pH = 4.0, 37° C.±1° C.), 2530 µg/mL; in series [1] (pH = 4.5, 37° C.±1° C.), 3430 µg/mL. Besides, the “Equilibrium Solubility” value in series [1] (setting [5]) is 495.71 mg/250 ml; in series [1] (pH = 1.2, 37° C.±1° C.), 6117.84 mg/250 ml; in series [1] (pH = 2.2, 37° C.±1° C.) it was 849.73 mg/250 ml; in series [1] (pH = 4.0, 37° C.±1° C.) it was 633.71 mg/250 ml; in series [1] (pH = 4.5, 37° C.±1° C.), 856.32 mg/250 ml; in series [1] (pH = 5.5, 37° C.±1° C.), 76.85 mg/250 ml. Moreover, the “Equilibrium Solubility” value in series [1] (pH = 6.8, 37° C.±1° C.) was determined as 3.61 mg/250 ml. In addition, in series [2], the “Angle of Repose” value is listed as 49°. Also, the “log P (n-octanol-water)” value in series [3] is 2.7. In addition, the Hygroscopicity result in series [4] is on record as “Slightly hygroscopic (the weight gain due to hygroscopicity is less than 2% but not less than 0.2%)”. Besides, the “Weight Gain” value in series [4] amounted to 0.4%.
For the compound `Cc1cncc(CN2CCC(=C3c4ccccc4CC(=O)c4sccc43)CC2)c1.O=C(O)/C=C/C(=O)O` [Crystalline form B, 4-[1-[(5-methylpyridin-3-yl)methyl]piperidyl-4-ylidene]-4,9-dihydro-10H-benzo[4,5]cycloheptyl[1,2-b]thiophen-10-one fumarate], the Concentration came out at 1220 µg/mL in series [1] (setting [5]); 29420 µg/mL in series [1] (pH = 1.2, 37° C.±1° C.); 2640 µg/mL in series [1] (pH = 2.2, 37° C.±1° C.); 1410 µg/mL in series [1] (pH = 4.0, 37° C.±1° C.); 1360 µg/mL in series [1] (pH = 4.5, 37° C.±1° C.). Also, the “Equilibrium Solubility” value in series [1] (setting [5]) is on record as 305.45 mg/250 ml; in series [1] (pH = 1.2, 37° C.±1° C.), 7355.56 mg/250 ml; in series [1] (pH = 2.2, 37° C.±1° C.), 659.74 mg/250 ml; in series [1] (pH = 4.0, 37° C.±1° C.) it was 352.76 mg/250 ml; in series [1] (pH = 4.5, 37° C.±1° C.), 339.48 mg/250 ml; in series [1] (pH = 5.5, 37° C.±1° C.) it was 44.97 mg/250 ml. In addition, the “Equilibrium Solubility” value in series [1] (pH = 6.8, 37° C.±1° C.) stood at 2.56 mg/250 ml. Also, the solubility thermodynamic came out at 180 µg/mL in series [1] (water-soluble medium of pH 5.5, 37 °C, pH 5.5, aqueous buffer, pH = 5.5, 37° C.±1° C.) and 10 µg/mL in series [1] (water-soluble medium of pH 6.8, 37 °C, pH 6.8, aqueous buffer, pH = 6.8, 37° C.±1° C.). In series [2], the “Angle of Repose” value worked out at 50°. In series [3], this compound displayed a chromatographic logP of 2.9. Also, the Hygroscopicity entry in series [4] is “Slightly hygroscopic (the weight gain due to hygroscopicity is less than 2% but not less than 0.2%)”. In addition, the “Weight Gain” value in series [4] is on record as 0.2%.
For the compound `Cc1cncc(CN2CCC(=C3c4ccccc4CC(=O)c4sccc43)CC2)c1.O=C(O)/C=C/C(=O)O` [Crystalline form C, 4-[1-[(5-methylpyridin-3-yl)methyl]piperidyl-4-ylidene]-4,9-dihydro-10H-benzo[4,5]cycloheptyl[1,2-b]thiophen-10-one fumarate], the Concentration worked out at 2460 µg/mL in series [1] (setting [5]); 2840 µg/mL in series [1] (pH = 4.0, 37° C.±1° C.); 3770 µg/mL in series [1] (pH = 4.5, 37° C.±1° C.); 310 µg/mL in series [1] (pH = 5.5, 37° C.±1° C.); 18 µg/mL in series [1] (pH = 6.8, 37° C.±1° C.). The “Equilibrium Solubility” value in series [1] (setting [5]) amounted to 616.34 mg/250 ml; in series [1] (pH = 1.2, 37° C.±1° C.), 4908.73 mg/250 ml; in series [1] (pH = 2.2, 37° C.±1° C.), 1013.35 mg/250 ml; in series [1] (pH = 4.0, 37° C.±1° C.) it was 710.90 mg/250 ml; in series [1] (pH = 4.5, 37° C.±1° C.), 942.80 mg/250 ml; in series [1] (pH = 5.5, 37° C.±1° C.), 77.90 mg/250 ml. In series [1] (pH = 6.8, 37° C.±1° C.), the “Equilibrium Solubility” value came out at 4.40 mg/250 ml. Besides, the “solubility according to the classification system of biopharmaceuticals” value in series [1] (medium with pH=6.8) is “slightly superior to that of other crystal forms”. In addition, the solubility thermodynamic in series [1] (water-soluble medium of pH 1.2, 37 °C, pH 1.2, simulated gastric fluid, pH = 1.2, 37° C.±1° C.) was 19600 µg/mL; in series [1] (water-soluble medium of pH 2.2, 37 °C, pH 2.2, aqueous buffer, pH = 2.2, 37° C.±1° C.), 4050 µg/mL. Further, the “Angle of Repose” value in series [2] was 28°; in series [2] (listed as crystalline form C), “less than 30 °”. Also, the “log P (n-octanol-water)” value in series [3] was 3.2. Moreover, the Hygroscopicity result in series [4] is on record as “No or almost no hygroscopicity (the weight gain due to hygroscopicity is less than 0.2%)”. The “Weight Gain” value in series [4] stood at 0.06%.
Turning to `Cc1cncc(CN2CCC(=C3c4ccccc4CC(=O)c4sccc43)CC2)c1.O=C(O)/C=C/C(=O)O` [Crystalline form A, 4-[1-[(5-methylpyridin-3-yl)methyl]piperidyl-4-ylidene]-4,9-dihydro-10H-benzo[4,5]cycloheptyl[1,2-b]thiophen-10-one fumarate], the Concentration in series [1] (setting [5]) was found to be 1790 µg/mL; in series [1] (pH = 1.2, 37° C.±1° C.) it was 26680 µg/mL; in series [1] (pH = 2.2, 37° C.±1° C.), 3000 µg/mL; in series [1] (pH = 4.0, 37° C.±1° C.), 2290 µg/mL; in series [1] (pH = 4.5, 37° C.±1° C.), 2990 µg/mL; in series [1] (pH = 5.5, 37° C.±1° C.) it was 340 µg/mL. Further, the “Equilibrium Solubility” value is recorded as 448.75 mg/250 ml in series [1] (setting [5]); 6669.86 mg/250 ml in series [1] (pH = 1.2, 37° C.±1° C.); 751.00 mg/250 ml in series [1] (pH = 2.2, 37° C.±1° C.); 571.88 mg/250 ml in series [1] (pH = 4.0, 37° C.±1° C.); 747.72 mg/250 ml in series [1] (pH = 4.5, 37° C.±1° C.); 84.93 mg/250 ml in series [1] (pH = 5.5, 37° C.±1° C.). The “Equilibrium Solubility” value in series [1] (pH = 6.8, 37° C.±1° C.) was 3.39 mg/250 ml. The “Angle of Repose” value in series [2] stood at 47°. For the same compound, the “log P (n-octanol-water)” value in series [3] turned out to be 2.8. In addition, in series [4], the Hygroscopicity entry is reported as “Slightly hygroscopic (the weight gain due to hygroscopicity is less than 2% but not less than 0.2%)”. Further, in series [4], the “Weight Gain” value amounted to 0.3%.
